This is an account of results in ChEMBL document CHEMBL1129290 (J Med Chem, 1996).

Data set [1] deals with Prostaglandin G/H synthase 1 (Homo sapiens, UniProt P23219).
The species named for data set [2] is Rattus norvegicus. Briefly: animal or person. Type of data set: functional.
Data set [3] is filed under the species Rattus norvegicus. Briefly: animal or person. Conditions: read-out: Inhibition.
The species named for data set [4] is Rattus norvegicus. Briefly: animal or person. Particulars: read-out: Inhibition. The source holds these as a separate data set.
The target in data set [5] is Cyclooxygenase (Rattus norvegicus) (UniProt P35355+Q63921). Conditions: at 30 mg/kg.
For data set [6], the species on record is Rattus norvegicus. Briefly: animal or person. In kind it is functional. The source holds these as a separate data set.
Data set [7] is filed under the species Rattus norvegicus. Briefly: animal or person. Particulars: read-out: Inhibition. This is another data set of the same source.
The species entered for data set [8] is Rattus norvegicus. The data set can be described thus: animal or person. Particulars: read-out: Inhibition. This is another data set of the same source.
The nature of data set [9]: in vivo. Conditions: rat, po, 10 mg/kg.
Data set [10] can be described thus: in vivo. Conditions: rat.

SMILES strings stand for the structures.

Sequence of Prostaglandin G/H synthase 1 (P23219 whole entry): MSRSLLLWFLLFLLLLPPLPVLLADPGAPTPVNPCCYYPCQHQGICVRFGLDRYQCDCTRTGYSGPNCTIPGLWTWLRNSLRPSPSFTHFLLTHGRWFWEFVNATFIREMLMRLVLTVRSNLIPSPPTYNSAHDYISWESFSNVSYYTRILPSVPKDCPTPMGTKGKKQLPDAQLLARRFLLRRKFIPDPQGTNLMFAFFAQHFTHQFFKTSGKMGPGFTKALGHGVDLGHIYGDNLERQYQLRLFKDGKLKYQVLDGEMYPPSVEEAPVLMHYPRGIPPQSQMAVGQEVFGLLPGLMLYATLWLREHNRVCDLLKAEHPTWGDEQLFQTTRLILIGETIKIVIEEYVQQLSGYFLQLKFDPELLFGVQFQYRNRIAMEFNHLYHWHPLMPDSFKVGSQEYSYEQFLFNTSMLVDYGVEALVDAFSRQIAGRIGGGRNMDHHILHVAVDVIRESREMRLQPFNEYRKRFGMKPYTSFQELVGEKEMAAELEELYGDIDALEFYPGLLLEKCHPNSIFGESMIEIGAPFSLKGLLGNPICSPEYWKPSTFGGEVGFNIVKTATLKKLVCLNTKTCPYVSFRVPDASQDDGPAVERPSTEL

The molecule `CS(=O)(=O)c1ccc(C2=CC3(C=C2c2ccc(F)cc2)CC3)cc1` registered an IC50 in data set [1] of 1.32 µM.
For the molecule `COc1ccc(C2=C(c3ccc(S(N)(=O)=O)cc3)CC3(CC3)C2)cc1Cl`, the ED50 in the data set filed under Rattus norvegicus [2] amounted to 35.4 mg/kg; in the data set listed under Rattus norvegicus [6], 0.21 mg/kg. Further, the inhibition in vivo at 1 mg/kg in the data set listed under Rattus norvegicus [3] came to 79%. Moreover, the inhibition in vivo at 30 mg/kg in the data set filed under Rattus norvegicus [4] was 47%. This molecule gave an inhibition in data set [5] of 47%.
`NS(=O)(=O)c1ccc(C2=C(c3ccc(C(F)(F)F)cc3)CC3(CC3)C2)cc1`: the median effective dose (ED50) is 46.7 mg/kg in the data set listed under Rattus norvegicus [2] and 0.04 mg/kg in the data set filed under Rattus norvegicus [6]. Also, in the data set listed under Rattus norvegicus [4], the inhibition in vivo at 30 mg/kg was determined as 40%. The molecule also gave an inhibition in [5] of 46%. In addition, the inhibition in vivo at 2 mg/kg in the data set listed under Rattus norvegicus [7] turned out to be 92%.
As to `NS(=O)(=O)c1ccc(C2=C(c3ccc(Cl)c(Cl)c3)CC3(CC3)C2)cc1`, in the data set filed under Rattus norvegicus [2], the ED50 worked out at 31.3 mg/kg. The molecule further had a 50% inhibitory concentration (IC50) in [1] of 0.38 µM. The inhibition in vivo at 0.3 mg/kg in the data set filed under Rattus norvegicus [8] amounted to 72%.
Take `CS(=O)(=O)c1ccc(C2=C(c3ccc(F)cc3)CCC2)cc1` [SC-57666]: in the data set “in vivo [9]”, the bioavailability turned out to be 11%. The same molecule had a half-life in “in vivo [10]” of 1.6 h.
Consider `NS(=O)(=O)c1ccc(C2=C(c3ccc(F)cc3)CC3(CC3)C2)cc1`, for which the figures for the ED50 in the data set filed under Rattus norvegicus [2] and in the data set filed under Rattus norvegicus [6] were 17.6 mg/kg and 0.24 mg/kg, respectively. Moreover, the inhibition in vivo at 1 mg/kg in the data set listed under Rattus norvegicus [3] is 85%. Further, in data set [5], the inhibition came to 60%.
On to `CS(=O)(=O)c1ccc(C2=C(c3ccc(OC(F)(F)F)cc3)CC3(CC3)C2)cc1`, for which the inhibition in data set [5] turned out to be 20%.
In data set [5], `CS(=O)(=O)c1ccc(C2=C(c3ccc(F)c(Cl)c3)CC3(CC3)C2)cc1` yielded an inhibition of 38%.
In data set [5], `NS(=O)(=O)c1ccc(C2=C(c3ccc(F)c(F)c3)CC3(CC3)C2)cc1` registered an inhibition of 18%.
For `CS(=O)(=O)c1ccc(C2=C(c3ccc(C(F)(F)F)cc3)CC3(CC3)C2)cc1`, the inhibition in data set [5] worked out at 35%.
`COc1ccc(C2=C(c3ccc(S(C)(=O)=O)cc3)CC3(CC3)C2)cc1Cl` registered an ED50 in the data set filed under Rattus norvegicus [2] of 27.7 mg/kg. Moreover, the inhibition in vivo at 30 mg/kg in the data set filed under Rattus norvegicus [4] amounted to 45%. Besides, the inhibition in [5] came out at 42%. Further, in the data set filed under Rattus norvegicus [7], the inhibition in vivo at 2 mg/kg is 12%.
Take `CS(=O)(=O)c1ccc(C2=C(c3ccc(Cl)c(Cl)c3)CC3(CC3)C2)cc1`: the inhibition in data set [5] turned out to be 23%.
For `CS(=O)(=O)c1ccc(C2=C(c3ccc(F)cc3)CC3(CC3)C2)cc1`, the inhibition in vivo at 1 mg/kg in the data set listed under Rattus norvegicus [3] was 68%. Also, the inhibition in vivo at 30 mg/kg in the data set listed under Rattus norvegicus [4] stood at 31%. In data set [5], the inhibition worked out at 49%. The molecule also displayed an ED50 in the data set filed under Rattus norvegicus [6] of 0.3 mg/kg. In the data set “in vivo [9]”, the bioavailability worked out at 58%. The same molecule had a half-life in the data set “in vivo [10]” of 2.3 h.
The molecule `COc1ccc(C2=C(c3ccc(S(C)(=O)=O)cc3)CC3(CC3)C2)cc1` gave an inhibition in data set [5] of 0%.
`COc1ccc(C2=C(c3ccc(S(C)(=O)=O)cc3)CC3(CC3)C2)cc1F`: the inhibition in vivo at 30 mg/kg in the data set filed under Rattus norvegicus [4] came out at 19%. The inhibition in [5] amounted to 30%. Also, the inhibition in vivo at 2 mg/kg in the data set listed under Rattus norvegicus [7] was found to be 63%.
Take `COc1ccc(C2=CC3(C=C2c2ccc(S(C)(=O)=O)cc2)CC3)cc1Cl`: the midpoint of inhibition in data set [1], the IC50, lay at 3.38 µM.
The molecule `CS(=O)(=O)c1ccc(C2=C(c3ccc(F)cc3)CC3(CCC3)C2)cc1` had an inhibition in [5] of 23%.
`COc1ccc(C2=C(c3ccc(S(C)(=O)=O)cc3)CC3(CC3)C2)cc1Br` came in with an inhibition in data set [5] of 21%.
Regarding `CS(=O)(=O)c1ccc(C2=C(c3ccc(F)c(F)c3)CC3(CC3)C2)cc1`, in data set [5], the inhibition was 23%.
As for `COc1ccc(C2=C(c3ccc(S(N)(=O)=O)cc3)CC3(CC3)C2)cc1F`, the figures for the ED50 in the data set listed under Rattus norvegicus [2] and in the data set listed under Rattus norvegicus [6] were 40.8 mg/kg and 0.08 mg/kg, respectively. The inhibition in vivo at 1 mg/kg in the data set filed under Rattus norvegicus [3] is 89%. For the same molecule, the inhibition in vivo at 30 mg/kg in the data set listed under Rattus norvegicus [4] turned out to be 38%. Further, the inhibition in [5] came to 40%.
Regarding `COc1c(Cl)cc(C2=C(c3ccc(S(C)(=O)=O)cc3)CC3(CC3)C2)cc1Cl`, the ED50 in the data set filed under Rattus norvegicus [2] is 32.7 mg/kg; in the data set listed under Rattus norvegicus [6], 0.52 mg/kg. Besides, in the data set listed under Rattus norvegicus [3], the inhibition in vivo at 1 mg/kg stood at 57%. Also, in the data set filed under Rattus norvegicus [4], the inhibition in vivo at 30 mg/kg was found to be 50%. The same molecule yielded an inhibition in [5] of 44%.

The term IC50 denotes the concentration that inhibits the measured activity by half. As usually defined, the ED50 is the midpoint of the dose-response relation. The low end stands for greater potency, the high end for weaker potency. Usually inhibition stands for the share of the control response that was lost under treatment. High values mean a response far below the control, low ones a response near the control. Usually bioavailability stands for dose-corrected exposure relative to a reference, in per cent. Low readings indicate poor availability, high ones good availability. One may read the half-life as the time needed for the level to fall by half in the phase considered. High values mean slow decline, low ones rapid decline.
